Reference: patent US20230234993A1, “COMPOSITION FOR PREVENTING OR TREATING NEUROLOGICAL DISEASES RELATED TO COPPER METABOLISM, COMPRISING MULTI-COPPER OXIDASE PEPTIDE” (NATIONAL MARINE BIODIVERSITY INSTITUTE OF KOREA, priority 2020, published 2023)
Where no end group is shown, it is not given here.

Experiments:
Format in all cases: in vivo
[1] = tested on: zebrafish embryos exposed to copper; experiment: Hatching rate under copper overexposure conditions
Description: Through hatching rate examination, the activities of CP002 and CP002S were analyzed in zebrafish embryos exposed to copper. Specifically, the development process of fertilized eggs obtained by mating male and female wild-type zebrafish was safely maintained in an incubator. At 24 hours after fertilization, normally grown embryos were dispensed into a 24-well plate by 13 subjects and maintained under copper overexposure conditions. The dispensed subjects were treated with CP002 (5, 10 μM), CP002S (5, 10 μM), DPA (5, 10 μM), or TETA (5, 10 μM). From 48 hours to 52, 56, 60, 72, and 80 hours after fertilization (24 hours after treatment) when hatching started, the number of hatched subjects in each group was examined. A negative control group in the experiment was a 0.1% DMSO treated group (normal group) and a copper overexposed group (4 μM CuSO4), and a positive control group was a CP002 treated group; a DPA (penicillamine/D-Penicillamine) treated group; and a TETA (trientine/Trientine) treated group. The DPA and TETA were drugs that have been used as therapeutic agents for Wilson's disease and copper overexposure in the related art. The results of examining the hatching rate were illustrated in FIG. 9.

[2] = tested on: myelinated cells in the nervous system of zebrafish embryos under copper overexposure; experiment: Myelination defect of cranial ganglia in copper overexposure nervous system model (fluorescence microscopy); settings: 6 days of drug treatment; for subjects expressing the fluorescent protein (cranial ganglia): with copper, concentration not given
Description: The development process of fertilized eggs obtained by mating male and female wild-type zebrafish was safely maintained in an incubator (28.5° C.). At 24 hours after fertilization, normally grown embryos were dispensed into a 24-well plate by 10 subjects and maintained under copper overexposure conditions. To examine the developmental defects of myelinated cells in the nervous system due to copper overexposure and a therapeutic effect of a multi-copper oxidase peptide, CP002S (10 μM) was treated. After 6 days of drug treatment, the subjects were anesthetized with tricaine and placed in 3% methylcellulose. The myelination defect of cranial ganglia (Cg) was observed through fluorescence microscopy, and fluorescent proteins were divided into a normal and a defect according to an expression level. A negative control group in the experiment was a 0.1% DMSO treated group (normal group) and a copper overexposed group, and a positive control group was a DPA (penicillamine/D-Penicillamine) treated group; and a TETA (trientine/Trientine) treated group. The results observed with a fluorescence microscope were illustrated in FIG. 10A, and the results of analyzing the therapeutic effect based on the fluorescence microscope observation results were illustrated in FIG. 10B.

[3] = tested on: zebrafish embryos under copper overexposure conditions; experiment: Cardiotoxicity (heart rate) in copper-overexposed nervous system model
Description: The development process of fertilized eggs obtained by mating male and female wild-type zebrafish was safely maintained in an incubator (28.5° C.). At 24 hours after fertilization, normally grown embryos were dispensed into a 24-well plate by 20 subjects and maintained under copper overexposure conditions. On 4.5 days after treatment (5.5 days after fertilization), 7 subjects per group were randomly selected, 3% methylcellulose was put in a hole slide glass, and the heart of each subject was located on the hole slide glass to be observed with the naked eye through a stereoscopic microscope lens and observed under a microscope. The heart rate was measured together with the movement of the atria and the ventricles for 20 seconds for each subject in each group to be converted to a heart rate per minute and the average heart rate for each group was compared through a PRISM (Bonfferroni's Multiple Comparison Test, One-way ANOVA) program. In addition, the heart rate inhibition rate was calculated as follows using an average heart rate of the control group. Heart rate inhibition rate=[(average heart rate by group−average heart rate in control group)×100]/average heart rate in control group […] The results of measuring the heart rate in the copper overexposed model animal were illustrated in FIG. 11A, and the heart rate inhibition rate calculated based on the heart rate measurement results was illustrated in FIG. 11B.

[4] = tested on: wild-type zebrafish fertilized eggs; experiment: Developmental toxicity analysis of multi-copper oxidase-derived peptides (number of surviving subjects, viability)
Description: The developmental toxicity of CP001 (SEQ ID NO: 3) and CP002 (SEQ ID NO: 4), which were multi-copper oxidase-derived peptides, was analyzed. Specifically, fertilized eggs were obtained by mating wild-type zebrafish. After the obtained fertilized eggs were maintained in an incubator for 24 hours, 7 subjects were dispensed into each well of a 24-well plate. The dispensed subjects were treated with CP001 and CP002 at various concentrations (10, 50, and 100 μM). After treatment with the CP001 and CP002, the number of surviving subjects at 2, 6, 22, and 36 hours was confirmed using a microscope, and the viability was calculated based on the results. The control group of the experiment was treated with 0.1% DMSO. The result of confirming the number of surviving subjects was illustrated in FIG. 5A and the calculation result of the viability was illustrated in FIG. 5B.
The experiment was performed in the same method as described above, and the treatment concentrations of CP001 and CP002 were as follows. • CP001: 1 μM, 4 μM • CP002: 5 μM, 10 μM

[5] = tested on: wild-type zebrafish embryos; experiment: Abnormal blood deposition in tissue by hematological staining after ceruloplasmin mRNA injection; settings: 180 pg or 350 pg mRNA injected into embryos at 1 to 4 cell stages; 48 hours after injection; compared to normal group
Description: Specifically, the ceruloplasmin gene (SEQ ID NO: 1) derived from Octopus minor obtained in Example 1 was treated with restriction enzymes Cla 1 and Xho 1, and inserted into a pCS2+ expression vector. A restriction enzyme Sac II was treated to the pCS2+ expression vector into which the ceruloplasmin gene was inserted, to prepare linear DNA. An mRNA using the linear DNA as a template was synthesized by an in vitro transcription (Sp6, Invitrogen) method.
After obtaining fertilized eggs by mating wild-type zebrafish, embryos at 1 to 4 cell stages were arranged on an injection plate. After loading the synthesized ceruloplasmin mRNA in a microglass tube with a microloder tip, a predetermined concentration (180 pg or 350 pg) thereof was injected into the embryo using a microinjector, a picopump, and a microscope. Subjects injected with the ceruloplasmin mRNA were cultured in an incubator, and after 48 hours of injection, dark-treated with a hematological staining reagent (o-dianisidine (0.6 mg/ml), 0.01 M sodium acetate (pH 4.5), 0.65% H2O2, 40% ethanol) for 30 minutes, and then washed. After washing, a fixing solution (4% paraformaldehyde) was treated to the subject injected with the ceruloplasmin mRNA, and reacted for at least 1 hour. The subjects injected with the immobilized ceruloplasmin mRNA were placed in 80% glycerol/20% PBS, and photographed under a stereoscopic microscope. […]

[6] = 10 μM, 72 hours after fertilization
[7] = 10 μM, 80 hours after fertilization
[8] = 5 μM, 48 hours after fertilization
[9] = 5 μM, 52 hours after fertilization
[10] = 10 μM, 48 hours after fertilization
[11] = 10 μM, 52 hours after fertilization
[12] = copper overexposure, 5.5 days after fertilization, concentration not given

Compound | hatching rate [1, 6] [%] | hatching rate [1, 7] [%] | subjects expressing the fluorescent protein (cranial ganglia) [2] [%] | hatching rate [1, 8] [%] | hatching rate [1, 9] [%] | hatching rate [1, 10] [%] | hatching rate [1, 11] [%] | heart rate [3, 12] [beats per minute] | also measured
CC(C)(S)[C@@H](N)C(=O)O [DPA, D-Penicillamine] | 36.3 | 81.8 | 100 |  |  |  |  |  | hatching rate ([1]; 5 μM, 80 hours after fertilization): 45.4%
NCCNCCNCCN [TETA, Trientine] | 92.3 | 100 | 80 | 12.5 | 75 | 30.7 | 84.6 | 148 | hatching rate ([1]; 5 μM, 56 hours after fertilization): 100%; heart rate increase compared to the control group (heart rate inhibition rate) [3, 12]: 3.5%
GKWLLHCHVDDHIIGGMSAIY [CP002] |  |  |  |  |  |  |  | 132 | developmental toxicity ([4]; 10 μM, surviving subjects at 2, 6, 22, 36 hours): developmental toxicity was not shown; developmental toxicity (number of surviving subjects and viability) ([4]; 5 or 10 μM): there was no developmental toxicity; developmental toxicity ([4]; 50 to 100 μM, surviving subjects at 2, 6, 22, 36 hours): developmental toxicity was confirmed; heart rate decrease compared to the normal group (heart rate inhibition rate) ([3]; zebrafish, in vivo): 7.7%
GSWLVKCHVHDHYVGGMETLL [CP001] |  |  |  |  |  |  |  |  | developmental toxicity ([4]; 5 μM): developmental toxicity was not confirmed; developmental toxicity (number of surviving subjects and viability) ([4]; 1 or 4 μM): there was no developmental toxicity; developmental toxicity ([4]; 10 to 100 μM, surviving subjects at 2, 6, 22, 36 hours): developmental toxicity was confirmed
HCHVDDHIIGGM [CP002S] |  |  |  | 10 | 20 | 80 | 100 |  | hatching rate ([1]; 5 μM, 72 hours after fertilization): 100%; subjects with fluorescent protein expression in the cranial ganglia ([2]; 10 μM with copper): all subjects; heart rate ([3]; 10 μM, copper overexposure, 5.5 days after fertilization): 135 beats per minute
ceruloplasmin mRNA: mRNA synthesized by in vitro transcription from the Octopus minor ceruloplasmin gene (SEQ ID NO: 1) |  |  |  |  |  |  |  |  | blood deposition in tissue (o-dianisidine hematological staining) [5]: abnormal blood deposition in tissue was observed
